Reference: patent US20230398130A1, “METHODS AND COMPOSITIONS FOR DIFFERENTIATING STEM CELLS” (Massachusetts Institute of Technology, priority 2020, published 2023)

What was measured:
ISC-enriched organoids [1] = test: Primary screen, 384-well 2.5-D organoid differentiation (ENR+CD, 6 days): basal lysozyme secretion (LYZ.NS); format: cell-based, murine; settings: for Dose.FC.LYZ.NS: FC vs plate median; for Z.LYZ.NS: standard z score; for SSMD.LYZ.NS: strictly standardized mean difference
Description: (§1) High-throughput screening.

ISC-enriched organoids [2] = test: Primary screen, 384-well 2.5-D organoid differentiation (ENR+CD, 6 days): carbachol-induced lysozyme secretion (LYZ.S); format: cell-based, murine; settings: for Dose.FC.LYZ.S: FC vs plate median; for Z.LYZ.S: standard z score; for SSMD.LYZ.S: strictly standardized mean difference
Description: as §1

ISC-enriched organoids [3] = test: Primary screen, 384-well 2.5-D organoid differentiation (ENR+CD, 6 days, Target Selective Inhibitor Library, vs whole-plate median): ATP (CellTiter-Glo 3D, CTG); settings: for Dose.FC.CTG: FC vs plate median; for SSMD.CTG: strictly standardized mean difference
[4] = Dose 0.08 uM, primary screen, standard z score
[5] = Dose 0.40 uM, primary screen, standard z score
[6] = Dose 2.00 uM, primary screen, standard z score
[7] = Dose 10.00 uM, primary screen, standard z score
[8] = primary screen, 1st of the 4 dose lines of the treatment (dose not given)
[9] = primary screen, 2nd of the 4 dose lines of the treatment (dose not given)
[10] = primary screen, 3rd of the 4 dose lines of the treatment (dose not given)
[11] = primary screen, 4th of the 4 dose lines of the treatment (dose not given)

| Structure (SMILES) | Dose.FC.LYZ.NS (ISC-enriched organoids [1]; Dose 0.08 uM, primary screen) [log 2 fold change] | Z.LYZ.NS (ISC-enriched organoids [1]; Dose 0.08 uM, primary screen) | Dose.FC.LYZ.NS (ISC-enriched organoids [1]; Dose 0.40 uM, primary screen) [log 2 fold change] | Z.LYZ.NS (ISC-enriched organoids [1]; Dose 0.40 uM, primary screen) | Dose.FC.LYZ.NS (ISC-enriched organoids [1]; Dose 2.00 uM, primary screen) [log 2 fold change] | Z.LYZ.NS (ISC-enriched organoids [1]; Dose 2.00 uM, primary screen) | Dose.FC.LYZ.NS (ISC-enriched organoids [1]; Dose 10.00 uM, primary screen) [log 2 fold change] | Z.LYZ.NS (ISC-enriched organoids [1]; Dose 10.00 uM, primary screen) | Dose.FC.LYZ.S (ISC-enriched organoids [2]; Dose 0.08 uM, primary screen) [log 2 fold change] | Dose.FC.LYZ.S (ISC-enriched organoids [2]; Dose 0.40 uM, primary screen) [log 2 fold change] | Dose.FC.LYZ.S (ISC-enriched organoids [2]; Dose 2.00 uM, primary screen) [log 2 fold change] | Dose.FC.LYZ.S (ISC-enriched organoids [2]; Dose 10.00 uM, primary screen) [log 2 fold change] | Dose.FC.CTG (ISC-enriched organoids [3]; Dose 0.08 uM, primary screen) [log 2 fold change] | Z.CTG (ISC-enriched organoids [3]; [4]) | Dose.FC.CTG (ISC-enriched organoids [3]; Dose 0.40 uM, primary screen) [log 2 fold change] | Z.CTG (ISC-enriched organoids [3]; [5]) | Dose.FC.CTG (ISC-enriched organoids [3]; Dose 2.00 uM, primary screen) [log 2 fold change] | Z.CTG (ISC-enriched organoids [3]; [6]) | Dose.FC.CTG (ISC-enriched organoids [3]; Dose 10.00 uM, primary screen) [log 2 fold change] | Z.CTG (ISC-enriched organoids [3]; [7]) | also measured |
| --- | --- | --- | --- | --- | --- | --- | --- | --- | --- | --- | --- | --- | --- | --- | --- | --- | --- | --- | --- | --- | --- |
| Cc1ccc(S(=O)(=O)NC(=O)NN2CC3CCCC3C2)cc1 (stereo not drawn) [Gliclazide] |  |  |  |  |  |  |  |  |  |  |  |  |  |  |  |  |  |  |  |  | Dose.FC.LYZ.NS (ISC-enriched organoids [1]; Dose 10.00 uM, ENR+CD, 6 days): −0.035 log 2 fold change; Dose.FC.LYZ.S (ISC-enriched organoids [2]; Dose 10.00 uM, ENR+CD, 6 days): −0.060 log 2 fold change; Z.CTG (ISC-enriched organoids [3]; Dose 0.08 uM, standard z score of FC): 0.386; Z.CTG (ISC-enriched organoids [3]; Dose 0.40 uM, standard z score of FC): 0.128; Z.CTG (ISC-enriched organoids [3]; Dose 2.00 uM, standard z score of FC): 0.020; Dose.FC.CTG (ISC-enriched organoids [3]; Dose 10.00 uM, ENR+CD, 6 days): −0.092 log 2 fold change; Z.CTG (ISC-enriched organoids [3]; Dose 10.00 uM, standard z score of FC): −0.219 |
| COc1ccc2c(c1)c(C1=C(c3c[nH]c4ccccc34)C(=O)NC1=O)cn2CCCN(C)C [Go 6983] | −0.005 | −0.046 | 0.013 | 0.114 | 0.091 | 0.791 | −0.092 | −0.798 | 0.021 | 0.007 | −0.010 | −0.073 | 0.021 | 0.050 | −0.036 | −0.085 | 0.058 | 0.138 | −0.181 | −0.433 |  |
| Cl.Cl.O=S(=O)(NCCNC/C=C/c1ccc(Br)cc1)c1cccc2cnccc12 [H 89 2HCl] | 0.140 | 1.223 | 0.080 | 0.695 | 0.086 | 0.747 | 0.132 | 1.151 | 0.118 | 0.148 | 0.087 | 0.000 | 0.350 | 0.836 | 0.398 | 0.950 | 0.421 | 1.005 | 0.385 | 0.919 | SSMD.LYZ.NS (ISC-enriched organoids [1]; [8]): 0.995; SSMD.LYZ.NS (ISC-enriched organoids [1]; [9]): 0.816; SSMD.LYZ.NS (ISC-enriched organoids [1]; [10]): 0.521; SSMD.LYZ.NS (ISC-enriched organoids [1]; [11]): 0.374; Z.LYZ.S (ISC-enriched organoids [2]; [8]): 0.764; Z.LYZ.S (ISC-enriched organoids [2]; [9]): 0.955; Z.LYZ.S (ISC-enriched organoids [2]; [10]): 0.565; Z.LYZ.S (ISC-enriched organoids [2]; [11]): −0.001; SSMD.LYZ.S (ISC-enriched organoids [2]; [8]): 0.529; SSMD.LYZ.S (ISC-enriched organoids [2]; [9]): 0.703; SSMD.LYZ.S (ISC-enriched organoids [2]; [10]): 0.329; SSMD.LYZ.S (ISC-enriched organoids [2]; [11]): −0.001; SSMD.CTG (ISC-enriched organoids [3]; [8]): 1.039; SSMD.CTG (ISC-enriched organoids [3]; [9]): 0.952; SSMD.CTG (ISC-enriched organoids [3]; [10]): 0.830; SSMD.CTG (ISC-enriched organoids [3]; [11]): 1.211 |
| CC(C)c1ccc(NC(=O)Cn2cnc3c2c(=O)n(C)c(=O)n3C)cc1 [HC-030031] | 0.063 | 0.547 | 0.033 | 0.291 | −0.007 | −0.057 | −0.047 | −0.411 | 0.090 | 0.097 | −0.035 | 0.077 | 0.082 | 0.195 | 0.191 | 0.457 | −0.008 | −0.019 | −0.241 | −0.575 | SSMD.LYZ.NS (ISC-enriched organoids [1]; [8]): 0.506; SSMD.LYZ.NS (ISC-enriched organoids [1]; [9]): 0.276; SSMD.LYZ.NS (ISC-enriched organoids [1]; [10]): −0.048; SSMD.LYZ.NS (ISC-enriched organoids [1]; [11]): −0.383; Z.LYZ.S (ISC-enriched organoids [2]; [8]): 0.584; Z.LYZ.S (ISC-enriched organoids [2]; [9]): 0.627; Z.LYZ.S (ISC-enriched organoids [2]; [10]): −0.225; Z.LYZ.S (ISC-enriched organoids [2]; [11]): 0.499; SSMD.LYZ.S (ISC-enriched organoids [2]; [8]): 0.499; SSMD.LYZ.S (ISC-enriched organoids [2]; [9]): 0.539; SSMD.LYZ.S (ISC-enriched organoids [2]; [10]): −0.200; SSMD.LYZ.S (ISC-enriched organoids [2]; [11]): 0.322; SSMD.CTG (ISC-enriched organoids [3]; [8]): 0.200; SSMD.CTG (ISC-enriched organoids [3]; [9]): 0.606; SSMD.CTG (ISC-enriched organoids [3]; [10]): −0.025; SSMD.CTG (ISC-enriched organoids [3]; [11]): −0.715 |
